“And” between values parts separate entries of the source, which are not always exact repeats. Identical values can stand only once. Like-named read-outs stand apart in the source and are kept apart here.
Columns and labels:
P. falciparum K1 = assay: Proliferative (SYBR Green I) assay, asexual parasites, 96 h; format: cell-based; details: Plasmodium falciparum, ±SEM
Description: (§1) P. falciparum parasites (NF54, K1, and W2) were cultured in vitro in human erythrocytes (A^+ or O^+) under 90% N2, 5% CO2, and 5% O2 atmospheric conditions with supplemented RPMI 1640 media (Sigma Aldrich) containing Albumax II, as previously described (Verlinden et al., [2011]). This study was carried out according the guidelines set out by the Faculty of Health Sciences Ethical Committee, Ethical Clearance no. EC-120821/077. The protocol was approved by the Faculty of Health sciences ethical committee at the University of Pretoria. All subjects gave written informed consent in accordance with the Declaration of Helsinki. Parasite proliferation was monitored microscopically using Giemsa stained smears. Synchronized ring stage parasites (>95%) were obtained using a 5% D-sorbitol (Sigma Aldrich) treatment. […] Gametocyte cultures were kept stationary under 90% N2, 5% CO2, and 5% O2 atmospheric conditions at 37°C and treated with 50 mM N-acetyl-glucosamine (NAG) to eliminate residual invasion of asexual parasites.
(§2) Working solutions of the derivatives were prepared from a 10 mM stock solution in 100% DMSO in supplemented RPMI 1640 media containing Albumax II with a final DMSO concentration of <0.1%, previously determined as being non-toxic to intraerythrocytic asexual parasites and gametocytes. Dose responses were assayed using a two-fold serial drug dilution on in vitro >95% ring stage intraerythrocytic P. falciparum parasites at 37°C under 90% N2, 5% CO2, and 5% O2 atmospheric conditions, detecting both parasite lactate dehydrogenase (pLDH) activity as a metabolic marker following a 48 h drug exposure (1.5–2% parasitemia and 2% hematocrit; Makler et al., [1993]) and SYBR Green I fluorescence as proliferative marker following a 96 h drug exposure (1% parasitemia and 1% hematocrit). […] Data analysis was performed using GraphPad Prism 7.

P. falciparum NF54 [1] = assay: as above; format: cell-based; details: Plasmodium falciparum, ±SEM
Description: as §1, §2

P. falciparum W2 = assay: as above; format: cell-based; details: Plasmodium falciparum, ±SEM
Description: as §1, §2

[2] = test system: P. falciparum NF54 late stage gametocytes (>90% stage IV and V); assay: Gametocytocidal luciferase reporter assay, late stage, 72 h; format: cell-based, Plasmodium falciparum
Description: as §1
(§3) Gametocytocidal activity was determined using the luciferase reporter line (Reader et al., [2015]) to derive dose responses with two-fold serial drug dilutions for 48 h against early stage gametocytes (day 5 post-induction population, >90% stage I–III) and 10-fold serial drug dilutions for 72 h against late stage gametocytes (day 10 post-induction population, >90% late stage IV–V) (2% gametocytemia, 2% hematocrit), at 37°C under 90% N2, 5% CO2, and 5% O2 atmospheric conditions.

Cytotoxicity, MTT assay = format: cell-based; details: Chinese hamster, CHO cells
Description: (§4) Cytotoxicity (EC50) was determined against Chinese hamster ovarian (CHO) using a 3-(4,5-dimethylthiazol-2-yl)-2,5-diphenyltetrazolium bromide (MTT) assay and hepatocellular carcinoma cells (HepG2) using the Cytoselect LDH cytotoxicity assay kit (Cell Biolabs).

P. falciparum Dd2 = assay: Metabolic (parasite LDH) assay, asexual ring stage parasites, 48 h; format: cell-based; details: Plasmodium falciparum, pLDH, Dd2 CQ, pyrimethamine resistant
Description: as §2

[3] = test system: P. falciparum NF54 early stage gametocytes (>90% stage I–III); assay: Gametocytocidal luciferase reporter assay, early stage, 48 h; format: cell-based; details: Plasmodium falciparum, NF54, 48 h, read-out: Early Stage (EG, Luc 48 h) IC50
Description: as §1, §3

P. falciparum NF54 [4] = assay: Metabolic (parasite LDH) assay, asexual ring stage parasites, 48 h; format: cell-based; details: Plasmodium falciparum, pLDH, CQ-sensitive NF54
Description: as §1, §2

[5] = Cytotoxicity, Cytoselect LDH cytotoxicity assay kit; format: cell-based; details: human, HepG2 cells
Description: as §4

[6] = test system: P. berghei ANKA GFP-Luc-SMcon sporozoites; assay: P. berghei-luciferase liver stage bioluminescence assay (causal prophylactic mode) in HepG2-CD81 cells; format: cell-based, Plasmodium berghei; details: for Emax: 48 h, read-out: P.berghei-Luciferase Liver Stage Bioluminescence Assay: Maximum measured (%)
Description: (§5) Briefly, HepG2-CD81 cells were seeded into 1,536 well plates containing 50 nL of test and control compounds diluted into DMSO. […] Next, 2 μL of luciferin reagent (Promega BrightGlo) was added to each well and luciferase activity was detected using a Perkin Elmer Envision plate reader. […] In parallel, plates were processed without sporozoites for HepG2 toxicity measurements.
(§6) In continuation of the transmission blocking theme, it is important to establish activities against liver stage parasites. […] This assay uses ultra-high-throughput screening methods optimized for a 1536-well format and a HepG2 human hepatoma cell line. […] To establish selectivity of the compounds for the parasite in the liver stage of infection, cytotoxicity was determined by measuring bioluminescence from the reaction between free ATP of compound-treated, uninfected hepatocytes and a luciferase reporter system.

[7] = HepG2 cytotoxicity bioluminescence assay (CellTiterGlo, ATP); format: cell-based, human; details: human, uninfected HepG2-CD81 cells; for IC50 at 72 h: two biological replicates listed in one cell; for EC50 at 72 h: uninfected HepG2, ATP bioluminescence
Description: as §5, §6

HepG2 cells = assay: as above; format: cell-based, human; details: two biological replicates listed in one cell
Description: as §5, §6

[8] = Plasmodium falciparum, NF54, 72 h, read-out: Late Stage (LG, Luc 72 h) IC50, >90% stage IV and V gametocytes, ±SEM
[9] = read-out: Late Stage (LG, Luc 72 h) IC50, >90% stage IV and V gametocytes, ±SEM
[10] = >90% stage I–III gametocytes, ±SEM
[11] = Plasmodium berghei, two biological replicates listed in one cell
[12] = Plasmodium berghei, HepG2, 48 h, liver stage, HepG2 host cells, luciferase after 48 h, ±SD, read-out: P. berghei sporozoites IC50
[13] = Plasmodium berghei, two biological replicates listed in one cell, read-out: P.berghei-Luciferase Liver Stage Bioluminescence Assay: IC50
[14] = two biological replicates listed in one cell, read-out: P.berghei-Luciferase Liver Stage Bioluminescence Assay: IC50

C[C@H]1[C@H](N2CCN(S(=O)(=O)c3cccc(C(F)(F)F)c3)CC2)O[C@@H]2O[C@@]3(C)CC[C@H]4[C@H](C)CC[C@@H]1[C@@]24OO3 [Compound 16]
IC50 (P. falciparum K1): 5 nM
IC50 (P. falciparum NF54 [1]): 3.4 ± 0.6 nM
IC50 (P. falciparum W2): 4.6 ± 0.2 nM
IC50 [2, 8]: 0.4 to 0.7 nM
IC50 [2, 9]: 0.4 ± 0.3 nM
EC50 (Cytotoxicity, MTT assay): > 178000 nM
IC50 (P. falciparum Dd2): 7.46 ± 1.07 nM
IC50 [3, 10]: 19.7 ± 9.9 nM
IC50 (P. falciparum NF54 [4]): 1.13 ± 0.12 nM
EC50 [5]: 431 nM

O=C1C(O)=C([C@H]2CC[C@H](c3ccc(Cl)cc3)CC2)C(=O)c2ccccc21 [Atovaquone]
Emax [6, 11]: 92.9%
IC50 [6, 12]: 2.52 ± 0.997 nM
IC50 [6, 13]: 3.23 nM
inhibition at 0.5 µM ([6]; Plasmodium berghei, Conc. 0.5 μM, read-out: P. berghei sporozoites Maximum inhibition %): 94.8 ± 2.76%
IC50 [6, 14]: 1.81 nM
IC50 at 72 h [7]: > 250 nM
EC50 at 72 h [7]: > 250 nM
HepG2 Cytotoxicity Bioluminescence Assay: Maximum measured (%) (HepG2 cells): 16.9% and 8.57%
IC50 (HepG2 cells): > 250 nM

CCCCS(=O)(=O)N1CCN([C@@H]2O[C@@H]3O[C@@]4(C)CC[C@H]5[C@H](C)CC[C@@H]([C@H]2C)[C@@]35OO4)CC1 [Compound 13]
IC50 (P. falciparum K1): 3.1 ± 0.1 nM
IC50 (P. falciparum NF54 [1]): 2.7 ± 0.6 nM
IC50 (P. falciparum W2): 4.4 ± 1 nM
IC50 [2, 8]: 0.4 to 0.7 nM
IC50 [2, 9]: 0.5 ± 0.3 nM
IC50 [3, 10]: 21.5 ± 10.4 nM
EC50 [5]: 2720 nM

CO[C@H]1O[C@@H]2O[C@@]3(C)CC[C@H]4[C@H](C)CC[C@@H]([C@H]1C)[C@@]24OO3 [Artemether 3, artemether]
IC50 [6, 12]: > 10000 nM
inhibition at 10 µM ([6]; Plasmodium berghei, Conc. 10 μM, read-out: P. berghei sporozoites Maximum inhibition %): 49.4%

C[C@H]1[C@H](N2CCN(S(=O)(=O)c3cccc(F)c3)CC2)O[C@@H]2O[C@@]3(C)CC[C@H]4[C@H](C)CC[C@@H]1[C@@]24OO3 [Compound 17]
IC50 (P. falciparum K1): 4.85 ± 1.1 nM
IC50 (P. falciparum NF54 [1]): 3.1 ± 0.2 nM
IC50 (P. falciparum W2): 4.6 ± 0.2 nM
IC50 [2, 8]: 0.4 to 0.7 nM
IC50 [2, 9]: 0.6 ± 0.4 nM
EC50 (Cytotoxicity, MTT assay): > 196000 nM
IC50 (P. falciparum Dd2): 6.2 ± 0.7 nM
IC50 [3, 10]: 13.1 ± 7.2 nM
IC50 (P. falciparum NF54 [4]): 2 ± 0.6 nM
EC50 [5]: 637 nM

COc1ccc(C[C@H](N)C(=O)N[C@H]2[C@@H](O)[C@H](n3cnc4c(N(C)C)ncnc43)O[C@@H]2CO)cc1 [Puromycin]
Emax [6, 11]: 107%
IC50 [6, 12]: 22.7 ± 4.53 nM
IC50 [6, 13]: 19.5 nM
inhibition at 5 µM ([6]; Plasmodium berghei, Conc. 5 μM, read-out: P. berghei sporozoites Maximum inhibition %): 110 ± 4.24%
IC50 [6, 14]: 25.9 nM
IC50 at 72 h [7]: 114 nM
EC50 at 72 h [7]: 117 nM
HepG2 Cytotoxicity Bioluminescence Assay: Maximum measured (%) (HepG2 cells): 102.0% and 105.0%
IC50 (HepG2 cells): 120 nM

C[C@H]1[C@H](N2CCN(C(=O)Nc3ccc(C(C)(C)C)cc3)CC2)O[C@@H]2O[C@@]3(C)CC[C@H]4[C@H](C)CC[C@@H]1[C@@]24OO3 [Compound 22]
IC50 (P. falciparum K1): 1.12 ± 0.08 nM
IC50 (P. falciparum NF54 [1]): 1.87 ± 0.12 nM
IC50 (P. falciparum W2): 1.48 ± 0.14 nM
IC50 [2, 8]: 17.7 ± 15.1 nM
EC50 (Cytotoxicity, MTT assay): 2920 nM
IC50 (P. falciparum Dd2): 24.7 ± 2.79 nM
IC50 [3]: 45.9 ± 9.9 nM
IC50 (P. falciparum NF54 [4]): 2.11 ± 0.53 nM
EC50 [5]: 616 nM

CC(=O)Nc1ccc(S(=O)(=O)N2CCN([C@@H]3O[C@@H]4O[C@@]5(C)CC[C@H]6[C@H](C)CC[C@@H]([C@H]3C)[C@@]46OO5)CC2)cc1 [Compound 15]
IC50 (P. falciparum K1): 3.4 ± 0.3 nM
IC50 (P. falciparum NF54 [1]): 2.7 ± 0.7 nM
IC50 (P. falciparum W2): 5.4 ± 0.5 nM
EC50 (Cytotoxicity, MTT assay): > 177000 nM
IC50 (P. falciparum Dd2): 3.54 ± 0.32 nM
IC50 [3, 10]: 8 ± 2.3 nM
IC50 (P. falciparum NF54 [4]): 1.3 ± 0.5 nM
EC50 [5]: 1950 nM

C[C@H]1[C@H](N2CCN(S(=O)(=O)c3ccc(F)cc3)CC2)O[C@@H]2O[C@@]3(C)CC[C@H]4[C@H](C)CC[C@@H]1[C@@]24OO3 [Compound 19]
IC50 (P. falciparum K1): 4.2 ± 0.1 nM
IC50 (P. falciparum NF54 [1]): 3.4 ± 0.4 nM
IC50 (P. falciparum W2): 4.8 ± 0.5 nM
IC50 [2, 8]: 0.7 ± 0.5 nM
EC50 (Cytotoxicity, MTT assay): > 196000 nM
IC50 (P. falciparum Dd2): 9.8 ± 0.4 nM
IC50 [3, 10]: 12.1 ± 4.5 nM
IC50 (P. falciparum NF54 [4]): 1.65 ± 0.04 nM
EC50 [5]: 558 nM

C[C@H]1[C@H](NS(=O)(=O)N2CCN(c3ccc(C(F)(F)F)cn3)CC2)O[C@@H]2O[C@@]3(C)CC[C@H]4[C@H](C)CC[C@@H]1[C@@]24OO3 [Compound 30]
IC50 (P. falciparum K1): 4.3 ± 1.3 nM
IC50 (P. falciparum NF54 [1]): 3.3 ± 0.3 nM
IC50 (P. falciparum W2): 3 ± 1 nM
IC50 [2, 8]: 4 ± 3.8 nM
EC50 (Cytotoxicity, MTT assay): 34300 nM
IC50 (P. falciparum Dd2): 9.64 ± 0.6 nM
IC50 [3, 10]: 19.3 ± 6.2 nM
IC50 (P. falciparum NF54 [4]): 1.8 ± 0.6 nM
EC50 [5]: 311 nM

C[C@H]1[C@H](NS(=O)(=O)N2CCN(c3ccccn3)CC2)O[C@@H]2O[C@@]3(C)CC[C@H]4[C@H](C)CC[C@@H]1[C@@]24OO3 [Compound 29]
IC50 (P. falciparum K1): 4.9 ± 0.9 nM
IC50 (P. falciparum NF54 [1]): 4.3 ± 0.4 nM
IC50 (P. falciparum W2): 3.3 ± 0.7 nM
IC50 [2, 8]: 0.04 ± 0.03 nM
EC50 (Cytotoxicity, MTT assay): > 197000 nM
IC50 (P. falciparum Dd2): 6.4 ± 1.4 nM
IC50 [3, 10]: 24.7 ± 4.9 nM
IC50 (P. falciparum NF54 [4]): 1.68 ± 0.18 nM
EC50 [5]: 173 nM

From article PMC6967409 (Frontiers in Chemistry, 2020)
